This is an account of results in patent publication US20250041387A1, “POLYPEPTIDE SEQUENCE OF KDM6B AND APPLICATION OF KDM6B IN REGULATING AND CONTROLLING FUNCTION OF MESENCHYMAL STEM CELL” (BEIJING STOMATOLOGICAL HOSPITAL, CAPITAL MEDICAL UNIVERSITY, priority 2021, published 2025).

One test concerns the target WDR5 synthetic protein (Homo sapiens, UniProt P61964). The test can be described thus: Polypeptide microarray of KDM6B incubated with biotin-labeled WDR5. The format is binding. The conditions noted are these: FIG. 3A, B; positive = optical density more than 30%. The source says:
• (1) Synthesis of polypeptide chip: A polypeptide chip was designed by overlapping and synthesized according to the sequence of KDM6B protein, with a total of two arrays. • (2) Synthesis of polypeptide microarray: A matrix membrane was activated, and placed on a fully automated polypeptide chip synthesizer. A Fmoc-amino acid solution was automatically transferred to a specific position on the activated membrane according to the set procedure, to react with the membrane. The membrane was immersed sequentially into the blocking solution I and II to block side chains, and washed with dimethyl formamide (DMF). The membrane was placed in a deprotection solution to remove the Fmoc protective group at the amino-terminal, then washed with DMF, and dried with ethanol. The above steps were repeated until all polypeptide microarrays were completely synthesized. After the synthesis was completed, the protective groups of the side chains were removed with specific organic reagents. […] The control group was incubated with the blocking solution. • (6) Streptavidin-HRP incubation: The reaction reagent Streptavidin-HRP (High Sensitivity Streptavidin-HRP (prod #21133)) was diluted with the blocking solution in an ratio of 1:10000, and then the polypeptide microarray chip was incubated with 5 ml of the diluted Streptavidin-HRP under shaking at room temperature for 2 hours, and washed. • (7) Color development: ECL luminescence reagent was added, and digital imaging was performed on a Chempchemi digital imager. • (8) Scan of polypeptide microarray chip and data analysis of color spot: The colored polypeptide microarray chip was imaged at 425 nm using the Chempchemi Imaging System with 200 s exposure. The optical density of colored spots was analyzed using TotalLab image analysis software, and the optical density of each colored spot was calculated using the “Spot Edge Average” algorithm in the software, with the optical density of the surrounding background of each colored spot as a reference. […]

Test [1] has as its system telomerase reverse transcriptase. In words: ELISA assay of telomerase reverse transcriptase in BMSCs. The format is cell-based, human. The conditions noted are these: FIG. 4A. How it is done: • (1) Pre-detection preparation: A standard curve was calculated and plotted using a standard concentration gradient of 400 ng/mL, 200 ng/ml, 100 ng/ml, 50 ng/mL, 25 ng/ml, 12.5 ng/mL, 6.25 ng/mL, and 0 ng/mL. • (2) 100 μL of the standards and samples were added to each well of a 96-well plate. The plate was covered with a provided sealing film, and incubated at 37° C. for 2 hours. The name of the sample was noted on the surface of the sealing film. • (3) The sample in each well was discarded and spin-dried without washing. • (4) 100 μL of Biotin-antibody (1×) was added to each well. The plate was covered with a sealing film, and incubated at […] for 1 hour. If Biotin-antibody (1×) appeared cloudy, Biotin-antibody was warmed to room temperature and stirred gently until clear. • (5) The sample in each well was discarded. Each well was added with 200 μL of Wash Buffer using a multichannel pipette and left to stand for 2 minutes for washing. This process was repeated twice for a total of three times of washing. Complete removal of liquid at each step was critical for good performance. After the last time of washing, the Wash Buffer was discarded, and the 96-well plate was turned upside down and dried with a clean paper. • (6) 100 μL of HRP-avidin (1×) was added to each well. The 96-well microtiter plate was covered with a new sealing film and incubated at 37° C. for 1 hour. • (7) The process of discarding samples and washing in […] was repeated 5 times. • (8) 90 μL of TMB Substrate was added to each well. The plate was incubated in the dark at 37° C. for 15-30 minutes. 50 μL of Stop Solution was added to each well, and the plate was gently taped to mix solution evenly. • (9) The optical density of each well was detected at 450 nm within 5 min using a microtiter plate reader.

Test [2] deals with bone marrow mesenchymal stem cells. The test can be described thus: ALP activity of BMSCs after osteogenic induction. The format is cell-based, human. The conditions noted are these: 3 days of induction in osteogenic culture medium, FIG. 4D. How it is done: • (1) Osteogenic culture medium was purchased from Invitrogen, USA. • (2) Quantification of alkaline phosphatase (ALP) activity • 1) After 3 days of osteogenic induction, the culture medium was discarded, and the cells were washed with PBS twice. • 2) The cells were added with 500 μL of lysis buffer, and incubated at 37° C. for 15 minutes. • 3) The cells were scraped, transferred into a 1.5 mL EP tube, and centrifuged at 14000 rpm at 4° C. for 10 minutes. The supernatant was transferred into a new EP tube to measure the protein concentration, and the procedure was the same as that in Western blot. • 4) The capsule from the alkaline phosphatase kit (Stock substrate Sol.) was dissolved with 5 mL of distilled water under vigorous shaking, and mixed well. • 5) 50 μL of ALP buffer was added to 50 μL of Stock substrate Sol to obtain a mixture. 100 μL of the mixture was added to each well in a 96-well plate, then added with 10 μL of sample, and mixed well. A blank well without sample added was set for zero adjustment. • 6) The plate was incubated at 37° C. for 15 minutes, and the OD value was measured at 405 nm.
(§1) Result of ALP activity was calculated according to Y/incubation time/protein concentration. • (3) Alizarin red staining • 1) After two weeks of osteogenic induction, the culture medium was discarded. The cells were washed three times with PBS pre-cooled at 4° C., and fixed with 70% ethanol at 4° C. for 1 hour. • 2) The cells were washed 2 times with double distilled water, and stained with 40 mM alizarin red solution (pH 4.2) at room temperature for 10 minutes. The staining was observed by naked eyes. • 3) The cells were washed 3 times with double-distilled water. • (4) Determination of Ca^2+ concentration

The test system is the same in test [3]. The test can be described thus: Alizarin red staining and calcium quantification in BMSCs. The format is cell-based, human. The conditions noted are these: 2 weeks in osteogenic induction culture medium, FIG. 4E, F. The method, then: as §1
(§2) To quantitatively determine the concentration of calcium, the cells were added with 10% cetyl pyridinium chloride for dissolution for 30 minutes at room temperature. The OD value was measured at 562 nm using a spectrophotometer, and the calcium ion concentration of the samples was calculated according to the standard curve of calcium ion concentration, with the total protein concentration as an internal reference.

Test [4] concerns stem cells from apical papilla. In words: Alizarin red staining and calcium quantification in SCAPs. The format is cell-based, human. The conditions noted are these: SCAPs treated with polypeptide, 2 weeks of odontogenic induction, FIG. 8F, G. How it is done:
as §1, §2

Test [5] concerns senescent mouse bone marrow mesenchymal stem cells. In words: Senescence markers β-gal and P16 in senescent mouse BMSCs. The format is cell-based.

Consider “FITC-(Acp)-ADLTISHCAADVVRAYGRKKRRQRRR [peptide 114]”, for which the “binding degree to WDR5 on polypeptide microarray (optical density of spots)” value at WDR5 synthetic protein is “higher binding degree”. Moreover, the “expression of telomerase reverse transcriptase (ELISA)” value in test [1] is “promote the expression”; in test [1] (listed as 114 peptide), 0.03888. Also, the ALP activity entry in test [2] was “promoted”; in test [2] (listed as 114-peptide) it was 4.621. Also, the “mineralization capacity, quantification of calcium ion” value in test [3] is “significantly higher”; in test [3] (listed as 114 peptide), 1.807; in test [4], “significantly higher”; in test [4] (listed as 114 peptide), 1.619. For the same substance, the “expression of senescence markers of β-gal and P16” value in test [5] is listed as “reduce”.
On to “FITC-(Acp)-KEKSRRVLGNLDLQSYGRKKRRQRRR [peptide 102]”, for which the “binding degree to WDR5 on polypeptide microarray (optical density of spots)” value on WDR5 synthetic protein is reported as “higher binding degree”. Also, in test [1], the “expression of telomerase reverse transcriptase (ELISA)” value stood at 0.02236. Besides, the ALP activity entry is “promoted” in test [2] and 4.218 in test [2] (listed as 102-peptide). Besides, the “mineralization capacity, quantification of calcium ion” value in test [3] is reported as “significantly higher”; in test [3] (listed as 102 peptide), 1.584; in test [4], “significantly higher”; in test [4] (listed as 102 peptide), 1.637. Besides, in test [5], the “expression of senescence markers of β-gal and P16” value is given as “reduce”.
